# Values quoted from earlier work in patent US20230285350A1, “FORMULATIONS FOR TETRACAINE AND LIDOCAINE” (LYOTIP, INC., priority 2020, published 2023).
smiles,measurement,setting,value
CNC[C@H](O)c1ccc(O)c(O)c1 [Epinephrine],prolongation of numbing effect and motor block effect of the anesthetic,used with tetracaine,up to an hour
"CCN(CC)CC(=O)Nc1c(C)cccc1C [lidocaine, Lidocaine]",duration of effect,used as an injectable,half an hour to three hours
CCCCNc1ccc(C(=O)OCCN(C)C)cc1 [Tetracaine],Onset of effects,used in the eyes,≤ 30 s
same,duration of effects,used in the eyes,less than 15 minutes
